# Test results: US12582697B2, “Antisecretory factor for use in treatment and/or prevention of acute respiratory failure” (LANTMÄNNEN MEDICAL AB, priority 2018, dated 2026)
# Where a SMILES comes first, the peptide text is derived from it.
# Test system: adult pigs with experimentally induced ARDS
# Assay: ARDS model: adverse side effects on cardiovascular parameters
# Type: in vivo, pig
# Conditions: iv infusion 2 mg/kg, anaesthetized pigs
# Experimental: After ethical approval, 3 months old pigs (body weight 30-35 kg), in all 12, were purchased from a local farm and 2 pigs on 6 occasions brought to the laboratory in the morning on the day for the experiment. […] Upon arrival, the pigs were sedated and thereafter kept fully anaesthetized during the entire experiment until termination late the same day. Tracheostomy was performed and mechanical ventilation performed with a ventilator. This setup is visualized in FIG. 1. Tubes positioned in arteries, veins and via a vein also in the right heart. Equipment was implanted to enable the use of PiCCO instrument (Pulse index, Continuous Cardiac Output=PiCCO) in order to enable exact determination of the total blood volume in the lungs, extra-vascular lung water (EVLW) and cardiac function parameters. Blood pressure transducers were inserted in the pulmonary artery and in a central artery. Arterial blood gasses and additional blood parameters were checked at regular intervals. Oximetry was used to determine hemoglobin oxygen saturation in arterial blood. The core body temperature was kept automatically at desired normal level. EKG was recorded. […]
# Treatment with the peptide AF-16 or the vehicle started after the induction of the lung injury (i.e., after the injurious ventilation). […] The PiCCO values were determined once every hour for up to 4 hours after the infusion of the test substance. […]
structure (smiles),measurement,value
"CC(C)C[C@H](NC(=O)CNC(=O)[C@@H](NC(=O)[C@H](CC(N)=O)NC(=O)[C@H](CC(N)=O)NC(=O)[C@H](CCC(=O)O)NC(=O)[C@@H]1CCCN1C(=O)[C@H](CC(N)=O)NC(=O)[C@H](CO)NC(=O)[C@H](CCCNC(=N)N)NC(=O)[C@@H](NC(=O)[C@H](CCCCN)NC(=O)[C@H](CO)NC(=O)[C@H](Cc1c[nH]cn1)NC(=O)[C@H](CS)NC(=O)[C@@H](N)C(C)C)[C@@H](C)O)C(C)C)C(=O)O [AF-16, VCHSKTRSNPENNVGL] (H-VCHSKTRSNPENNVGL-OH; N-terminus and C-terminus assumed)","adverse side effects on cardiovascular parameters, including blood pressure and heart rates",no adverse side effects could be demonstrated
